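Dose response: 5 concentrations. Exposure: 48 h. Format: 96-well plates. Endpoint: linear interpolation; highest concentration if not reached. GI50 marks 50% less growth.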 The source made the active and inactive calls. No stated cut-off is given here; in the data, active = GI50 up to about 1.1 µM and inactive = higher.
Key:
Experiment in all cases: NCI tumour cell line growth inhibition, 48 h
RPMI-8226 = test system: RPMI-8226
HOP-92 = test system: HOP-92
NCI/ADR-RES = test system: NCI/ADR-RES
SF-295 = test system: SF-295
COLO 205 = test system: COLO 205
T47D = test system: T47D
M14 = test system: M14
A498 = test system: A498
SNB-19 = test system: SNB-19
MCF7 = test system: MCF7
UACC-62 = test system: UACC-62
IGROV-1 = test system: IGROV-1
K562 = test system: K562
HT-29 = test system: HT-29
MDA-MB-435 = test system: MDA-MB-435
HCT-116 = test system: HCT-116
Malme-3M = test system: Malme-3M
NCI-H522 = test system: NCI-H522
SK-OV-3 = test system: SK-OV-3
DU-145 = test system: DU-145
SR = test system: SR
SK-MEL-5 = test system: SK-MEL-5
SF-539 = test system: SF-539
MDA-N = test system: MDA-N
PC-3 = test system: PC-3
SN12C = test system: SN12C
SF-268 = test system: SF-268
SK-MEL-2 = test system: SK-MEL-2
NCI-H226 = test system: NCI-H226
HCC 2998 = test system: HCC 2998
OVCAR-4 = test system: OVCAR-4
NCI-H460 = test system: NCI-H460
SNB-75 = test system: SNB-75
EKVX = test system: EKVX
NCI-H23 = test system: NCI-H23
RXF 393 = test system: RXF 393
OVCAR-3 = test system: OVCAR-3
UACC-257 = test system: UACC-257
UO-31 = test system: UO-31
HCT-15 = test system: HCT-15
CAKI-1 = test system: CAKI-1
ACHN = test system: ACHN
MOLT-4 = test system: MOLT-4
A549 = test system: A549
786-0 = test system: 786-0
SW-620 = test system: SW-620
KM12 = test system: KM12
CCRF-CEM = test system: CCRF-CEM
HL-60 = test system: HL-60
TK-10 = test system: TK-10
Hs-578T = test system: Hs-578T
MDA-MB-231 = test system: MDA-MB-231
U-251 = test system: U-251
OVCAR-5 = test system: OVCAR-5
OVCAR-8 = test system: OVCAR-8
BT-549 = test system: BT-549
SK-MEL-28 = test system: SK-MEL-28
HOP-62 = test system: HOP-62
LOX IMVI = test system: LOX IMVI

SMILES: Cc1ccc2c(c1C)C(=O)C1(C2)Cc2ccc3c(c2C1=O)CCC3 (stereo not given)
- GI50 (RPMI-8226): > 100 µM (inactive)
- GI50 (HOP-92): > 100 µM (inactive)
- GI50 (NCI/ADR-RES): > 100 µM (inactive)
- GI50 (SF-295): > 100 µM (inactive)
- GI50 (COLO 205): > 100 µM (inactive)
- GI50 (T47D): > 100 µM (inactive)
- GI50 (M14): 2.03 µM (inactive)
- GI50 (A498): > 100 µM (inactive)
- GI50 (SNB-19): > 100 µM (inactive)
- GI50 (MCF7): > 100 µM (inactive)
- GI50 (UACC-62): > 100 µM (inactive)
- GI50 (IGROV-1): > 100 µM (inactive)
- GI50 (K562): > 100 µM (inactive)
- GI50 (HT-29): > 100 µM (inactive)
- GI50 (MDA-MB-435): > 100 µM (inactive)
- GI50 (HCT-116): > 100 µM (inactive)
- GI50 (Malme-3M): > 100 µM (inactive)
- GI50 (NCI-H522): > 100 µM (inactive)
- GI50 (SK-OV-3): > 100 µM (inactive)
- GI50 (DU-145): > 100 µM (inactive)
- GI50 (SR): > 100 µM (inactive)
- GI50 (SK-MEL-5): > 100 µM (inactive)
- GI50 (SF-539): 29.9 µM (inactive)
- GI50 (MDA-N): > 100 µM (inactive)
- GI50 (PC-3): > 100 µM (inactive)
- GI50 (SN12C): > 100 µM (inactive)
- GI50 (SF-268): > 100 µM (inactive)
- GI50 (SK-MEL-2): > 100 µM (inactive)
- GI50 (NCI-H226): > 100 µM (inactive)
- GI50 (HCC 2998): > 100 µM (inactive)
- GI50 (OVCAR-4): > 100 µM (inactive)
- GI50 (NCI-H460): > 100 µM (inactive)
- GI50 (SNB-75): > 100 µM (inactive)
- GI50 (EKVX): > 100 µM (inactive)
- GI50 (NCI-H23): > 100 µM (inactive)
- GI50 (RXF 393): 41.8 µM (inactive)
- GI50 (OVCAR-3): > 100 µM (inactive)
- GI50 (UACC-257): > 100 µM (inactive)
- GI50 (UO-31): > 100 µM (inactive)
- GI50 (HCT-15): > 100 µM
- GI50 (CAKI-1): > 100 µM (inactive)
- GI50 (ACHN): > 100 µM (inactive)
- GI50 (MOLT-4): > 100 µM (inactive)
- GI50 (A549): > 100 µM (inactive)
- GI50 (786-0): > 100 µM (inactive)
- GI50 (SW-620): > 100 µM (inactive)
- GI50 (KM12): > 100 µM (inactive)
- GI50 (CCRF-CEM): > 100 µM (inactive)
- GI50 (HL-60): > 100 µM (inactive)
- GI50 (TK-10): > 100 µM (inactive)
- GI50 (Hs-578T): > 100 µM (inactive)
- GI50 (MDA-MB-231): > 100 µM (inactive)
- GI50 (U-251): > 100 µM (inactive)
- GI50 (OVCAR-5): > 100 µM (inactive)
- GI50 (OVCAR-8): > 100 µM (inactive)
- GI50 (BT-549): > 100 µM (inactive)
- GI50 (SK-MEL-28): > 100 µM (inactive)

SMILES: Cc1ccccc1OC(C)C(=O)NN1C(=O)CC(=O)NC1=S (stereo not given)
- GI50 (RPMI-8226): > 100 µM (inactive)
- GI50 (HOP-92): > 100 µM (inactive)
- GI50 (NCI/ADR-RES): > 100 µM (inactive)
- GI50 (SF-295): 86.7 µM (inactive)
- GI50 (COLO 205): > 100 µM (inactive)
- GI50 (T47D): 23.9 µM (inactive)
- GI50 (M14): > 100 µM (inactive)
- GI50 (A498): > 100 µM (inactive)
- GI50 (SNB-19): > 100 µM (inactive)
- GI50 (MCF7): 47.4 µM (inactive)
- GI50 (UACC-62): 80.5 µM (inactive)
- GI50 (IGROV-1): > 100 µM (inactive)
- GI50 (K562): > 100 µM (inactive)
- GI50 (HT-29): > 100 µM (inactive)
- GI50 (MDA-MB-435): > 100 µM (inactive)
- GI50 (HCT-116): > 100 µM (inactive)
- GI50 (Malme-3M): > 100 µM (inactive)
- GI50 (NCI-H522): > 100 µM (inactive)
- GI50 (SK-OV-3): > 100 µM (inactive)
- GI50 (HOP-62): > 100 µM (inactive)
- GI50 (DU-145): > 100 µM (inactive)
- GI50 (SR): 49.1 µM (inactive)
- GI50 (SK-MEL-5): > 100 µM (inactive)
- GI50 (SF-539): > 100 µM (inactive)
- GI50 (MDA-N): > 100 µM (inactive)
- GI50 (PC-3): > 100 µM (inactive)
- GI50 (SN12C): > 100 µM (inactive)
- GI50 (SF-268): > 100 µM (inactive)
- GI50 (SK-MEL-2): > 100 µM (inactive)
- GI50 (NCI-H226): 70.5 µM (inactive)
- GI50 (HCC 2998): > 100 µM (inactive)
- GI50 (OVCAR-4): 63.2 µM (inactive)
- GI50 (NCI-H460): > 100 µM (inactive)
- GI50 (SNB-75): > 100 µM (inactive)
- GI50 (EKVX): > 100 µM (inactive)
- GI50 (NCI-H23): > 100 µM (inactive)
- GI50 (RXF 393): > 100 µM (inactive)
- GI50 (OVCAR-3): > 100 µM (inactive)
- GI50 (UACC-257): > 100 µM (inactive)
- GI50 (UO-31): > 100 µM (inactive)
- GI50 (HCT-15): > 100 µM
- GI50 (CAKI-1): > 100 µM (inactive)
- GI50 (ACHN): 84.5 µM (inactive)
- GI50 (MOLT-4): 94.8 µM (inactive)
- GI50 (A549): 68.9 µM (inactive)
- GI50 (786-0): > 100 µM (inactive)
- GI50 (SW-620): > 100 µM (inactive)
- GI50 (KM12): 92 µM (inactive)
- GI50 (HL-60): > 100 µM (inactive)
- GI50 (TK-10): > 100 µM (inactive)
- GI50 (Hs-578T): > 100 µM (inactive)
- GI50 (MDA-MB-231): > 100 µM (inactive)
- GI50 (U-251): > 100 µM (inactive)
- GI50 (LOX IMVI): > 100 µM (inactive)
- GI50 (OVCAR-5): > 100 µM (inactive)
- GI50 (OVCAR-8): > 100 µM (inactive)
- GI50 (BT-549): > 100 µM (inactive)
- GI50 (SK-MEL-28): > 100 µM (inactive)
